Reference: patent US20250186405A1, “Compound For Use In Treating Narcolepsy” (Alkermes, Inc., priority 2023, published 2025)
“And” between values parts separate entries of the source, which are not always exact repeats. Equal values may be shown once. Read-outs that look alike come from different tables or passages of the source.

Tests used:
Assay type in all cases: in vivo, human
healthy adult subjects = test: Part 3 RelBA with FE: safety; details: 10 mg
Method: Part 3 compared the relative bioavailability (RelBA) of Compound A between a tablet formulation and the powder-in-capsule formulation. In addition, the food effect (FE) on the bioavailability of Compound A was assessed following administration of tablet formulation. Dose levels were as follows:
The Part 3 (RelBA with FE) evaluation was conducted using a 2-sequence, 3-period crossover study design in approximately 12 subjects. Subjects in Part 3 were randomized 1:1 to receive 1 of 2 sequences consisting of 3 periods with up to 72 hours of washout between treatments. The first 2 periods were dosed under fasted state and the third period was dosed in a fed state (high-fat meal).
In treatment period(s) under the fed condition, following overnight fast, all subjects were given a high-fat breakfast. Within 30 minutes of starting the consumption of the breakfast, the assigned treatment was administered. […] There was a 72-hour washout period between the treatments.

[1] = Part 5 NT2: plasma pharmacokinetics, single doses; details: for Cmax / AUC(0-t) / Tmax: human, oral; for Cmax / AUC(0-t): geometric mean; for AUC(0-t): read-out: AUC0-24; for Tmax: plasma
Method: Treatments were administered under fasted state. Dose levels were as follows:
Subjects were randomized to 1 of 4 sequences.
Blood samples (up to 5 mL per sample) were collected for PK analysis of Compound A and its metabolite(s). The actual time of sample collection was recorded. The PK samples of the subjects randomized to placebo treatment were not analyzed. Any remaining plasma PK samples were used to explore the presence of any additional metabolites and/or biomarkers.
Plasma and urine concentrations of Compound A and its metabolite(s) were measured using a validated high-performance liquid chromatography with tandem mass spectrometry.
The PK population was used for summaries of plasma Compound A and its metabolite(s) concentrations and for analyses, summaries, and listing of PK parameters. Dose proportionality for Cmax, AUC0-t, and AUC0-∞ was evaluated using a linear model of logarithmically transformed values to assess the slope parameter, and the 95% CI for the slope was estimated. Where a 95% CI of the slope includes 1, it was considered as evidence of dose proportionality for that PK parameter.

[2] = system: subjects with idiopathic hypersomnia (IH); test: Part 6 IH: Maintenance of Wakefulness Test (MWT) sleep latency; details: for LS mean difference vs placebo in change from baseline, average MWT sleep latency: 2-8 hours post-dose; for Change from Day −1 in Average Sleep Latency on the MWT, LSM / Change from Day −1 in Average Sleep Latency on the MWT, LSM difference vs placebo: N = 8; for Average Sleep Latency on the MWT, Change from Day −1, Mean (SD) / Average Sleep Latency on the MWT, Change from Day −1, Median / Average Sleep Latency on the MWT, Dosing Day, Mean (SD) / Average Sleep Latency on the MWT, Dosing Day, Median: n = 8
Method: The Treatment Visit (Visit 2) began on Day −2, when each subject's eligibility criteria were reviewed, and eligible subjects were admitted to the clinic. Screening assessments and eligibility criteria review continued after admission until Day 1, prior to randomization and dosing. On Day −1, approximately 25 hours prior to study drug administration (on Day 1), baseline assessments for Maintenance of Wakefulness Test (MWT) began and were collected in a series of trials over approximately 10 hours.
At specified time points (Parts 5 and 6), MWT assessments were performed and took up to 40 minutes to complete. During the MWT trials, subjects were seated in a bed or reclining chair in a darkened room with their back and head supported such that their neck is not uncomfortably flexed or extended. Subjects were instructed to sit still and remain awake for as long as possible during each 40-minute trial. If the subject fell asleep during a trial, they were awakened, and the trial was terminated. […] Upon completion of the trial, the subject returned to a normal environment/ambiance and remained awake (and were awakened if they fall asleep) until the next trial.
Once Parts 5 and 6 were completed, the EEG data recorded during the MWT, as well as the technician notes, were transferred to the EEG vendor for further analysis. Technician notes were also maintained for transfer to Sponsor at the end of the study. A precise assessment of sleep latency was conducted by an experienced sleep scorer from the EEG vendor, and spectral analysis was performed on the EEG data recorded during MWT to assess absolute and relative powers in standard frequency bands (i.e., qEEG). All raw data and analysis results were transferred to the Sponsor.
For the changes from baseline in average sleep latency across the first 4 sessions of the MWT, descriptive statistics were provided by dose level. Mixed model with repeated measure (MMRM) for the 4-period crossover design were conducted with the change from baseline as a dependent variable, and the dose level and the period as fixed factors. The differences in the least square means between each Compound A dose level and the placebo (each Compound A dose level—the placebo), and the 2-sided CIs were provided.
Evaluation of Compound A effects on average sleep latency across 4 timepoints of MWT (2-, 4-, 6-, and 8-hours post-dose) has been conducted at each of the crossover periods (Days 1, 3, 5 and 7), testing placebo, and active dose levels of 5, 12, and 25 mg in the patients with IH compared to placebo. At pre-dose baseline on Day −1, MWT assessment was taken at similar times (2-, 4-, 6-, and 8-hours) as planned on dosing days assuming a dosing time of approximately 9 AM. Mean (SD) of baseline MWT average across the 4 time points on Day −1 was 22.61 (9.294), with high variability observed for IH subjects.

## CS(=O)(=O)N[C@H]1CCCN2C(=O)COc3ccccc3C3CCC(CC3)OCC12 (stereo partly drawn) [Compound A, N-[(4S,4aR,7α,10α)-1,2,3,4,4a,5,7,8,9,10,16,17-dodecahydro-17-oxo-7,10-ethanopyrido[1,2-d][1,7,4]benzodioxaazacyclotridecin-4-yl]methanesulfonamide]
Healthy adult subjects; fed and fasted conditions
  Tolerability: well tolerated
Healthy adult subjects; three administrations
  subjects reporting at least one AE (of 12): 11
[1]; NT2 patients, 5 to 25 mg
  fold change in AUC and Cmax for 5-fold change in dose: approximately 3 fold
[1]; 5 mg, NT2, plasma, n = 8
  Cmax: 13.4 ng/mL
  AUC(0-t): 78.1 ng·h/mL
[1]; 12 mg, NT2, plasma, n = 8
  Cmax: 24 ng/mL
  AUC(0-t): 185 ng·h/mL
[1]; 25 mg, NT2, plasma, N = 9
  Cmax: 38 ng/mL
  AUC(0-t): 231 ng·h/mL
[1]; 5 mg, NT2, plasma, median, n = 8, read-out: Tmax
  Tmax: 1.75 h
[1]; 12 mg, NT2, plasma, median, n = 8, read-out: Tmax
  Tmax: 2 h
[1]; 25 mg, NT2, plasma, median, N = 9, read-out: Tmax
  Tmax: 3 h
[1]; 25 mg, NT2 patients, 5, 12, 25 mg, read-out: median tmax, range across doses
  Tmax: 1.75 to 3 h
[2]; 5 mg
  LS mean difference vs placebo in change from baseline, average MWT sleep latency: 8.07 min and 8 min
  Change from Day −1 in Average Sleep Latency on the MWT, LSM: 6.35 min
  Change from Day −1 in Average Sleep Latency on the MWT, LSM difference vs placebo: 8.07 min
  Average Sleep Latency on the MWT, Change from Day −1, Mean (SD): 6.35 (10.348) minutes
  Average Sleep Latency on the MWT, Change from Day −1, Median: 4.75 min
  Average Sleep Latency on the MWT, Dosing Day, Mean (SD): 28.96 (9.196) minutes
  Average Sleep Latency on the MWT, Dosing Day, Median: 29.13 min
[2]; 12 mg
  observed mean MWT score over 8-hour period post-dose: ≥ 30 min
  LS mean difference vs placebo in change from baseline, average MWT sleep latency: 11.05 min and 11 min
  Change from Day −1 in Average Sleep Latency on the MWT, LSM: 9.33 min
  Change from Day −1 in Average Sleep Latency on the MWT, LSM difference vs placebo: 11.05 min
  Average Sleep Latency on the MWT, Change from Day −1, Mean (SD): 9.33 (11.468) minutes
  Average Sleep Latency on the MWT, Change from Day −1, Median: 7.00 min
  Average Sleep Latency on the MWT, Dosing Day, Mean (SD): 31.94 (7.814) minutes
  Average Sleep Latency on the MWT, Dosing Day, Median: 32.69 min
[2]; 25 mg
  observed mean MWT score over 8-hour period post-dose: ≥ 30 min
  LS mean difference vs placebo in change from baseline, average MWT sleep latency: 17.67 min and 18 min
  Change from Day −1 in Average Sleep Latency on the MWT, LSM: 15.95 min
  Change from Day −1 in Average Sleep Latency on the MWT, LSM difference vs placebo: 17.67 min
  Average Sleep Latency on the MWT, Change from Day −1, Mean (SD): 15.95 (10.946) minutes
  Average Sleep Latency on the MWT, Change from Day −1, Median: 15.31 min
  Average Sleep Latency on the MWT, Dosing Day, Mean (SD): 38.56 (2.821) minutes
  Average Sleep Latency on the MWT, Dosing Day, Median: 40.00 min
